Test results taken from US10501459B2, “Substituted imidazo[1,2-a]pyridines as bromodomain inhibitors” (NEOMED Institute, priority 2015, dated 2019).

Experiments:
[1] = system: human C-Myc gene transcription in MV-4-11 cells; experiment: Transcription of human C-Myc in human leukemic MV-4-11 cells (QuantiGene 2.0); format: cell-based; settings: inhibition of C-Myc mRNA, 4 hours treatment
Description: b) Transcription of Human C-Myc in Human Leukemic MV-4-11 Cells:
The effect of compounds on transcription of human C-Myc gene is monitored in human B-myelomonocytic leukemia cell line MV-4-11 (from American Type Culture Collection (ATCC), Manassas, Va., USA) using QuantiGene 2.0 assay kit (Affymetrix, Santa Clara, Calif., USA).
Typically, 8,000 MV-4-11 cells are plated in sterile 96-well plates (Costar #3598 from Fisher Scientific Canada, Ottawa, Ontario, Canada) in Iscove's medium supplemented with 10% fetal bovine serum, glutamine (2 mM), and penicillin (100 I.U.) and streptomycin (100 μg/mL) (all from Wisent Inc., St. Bruno, Quebec, Canada). Compounds are dissolved in DMSO at 30 mM. A series of 1:3 dilutions are first made in DMSO, and further […] dilutions are made in serum-containing cell culture media. The final concentration of DMSO is […] in cell culture media. After cells are treated with various concentrations of test compound for 4 hours, cells are lysed using Quantigene 2.0 sample processing kit (#QS0100). C-Myc mRNA is detected using a QuantiGene 2.0 assay kit (#QS0009) with gene-specific probe to human C-Myc (#SA-50182) following the manufacturer's recommendations. Luminescene signals are read on Flexstation II microplate reader (Molecular Devices, Sunnyvale, Calif., USA). Percentage of inhibition of C-Myc transcription is analyzed using EXCEL (2010 version).

BRD4(BD1) = molecular target: T1, BRD4(BD1) (Homo sapiens, UniProt O60885); experiment: In vitro bromodomain inhibition, BRD4(BD1) / biotinylated H4-tetraacetyl peptide AlphaLISA; format: binding; settings: His-tagged BRD4 BD1 200 nM, H4 peptide 200 nM, read-out: BRD4α (IC50)
T1 construct: purchased BPS Bioscience
Description: a) In Vitro Bromodomain Inhibition
To measure activity of bromodomain inhibitors, a His-epitope tagged BRD4 BD149-170 is purchased from BPS Bioscience. BRD4 binding and inhibition is assessed by monitoring the engagement of biotinylated H4-tetraacetyl peptide (H4K5/8/12/16; AnaSpec #64989-025) with the target using the AlphaLISA technology (Perkin-Elmer). Specifically, in a 384 well OptiPlate, BRD4(BD1) (200 nM final) is pre-incubated with either DMSO (final 1.0% DMSO) or a compound dilution series in DMSO. All reagents are diluted in assay buffer containing 50 mM HEPES (pH 7.4), 100 mM NaCl, 0.1% (w/v) BSA, and 0.05% (w/v) CHAPS. After a 30 minute incubation at room temperature, H4 peptide is added (200 nM final) and the reaction is incubated an additional 30 minutes at room temperature. Alpha streptavidin donor beads and AlphaLISA nickel chelate acceptor beads are then added to a final concentration of 10 μg/mL each. After one hour, equilibration plates are read on an Envision instrument and IC50s calculated using a four parameter non-linear curve fit.

Compound	IC50 ([1]; Homo sapiens, MV4-11, 4 h) [nM]	IC50 (BRD4(BD1)) [nM]	IC50 [1] [nM]
Cc1cc(-c2ccc3ncc(Cc4ccc(F)cc4)n3c2)cn(C)c1=O [Compound 2, 5-[3-[(4-fluorophenyl)methyl]imidazo[1,2-a]pyridin-6-yl]-1,3-dimethyl-pyridin-2-one]	59.2	99.5	–
Cc1cc(-c2ccc3ncc(Cc4cccc(F)c4)n3c2)cn(C)c1=O [Compound 5, 5-[3-[(3-fluorophenyl)methyl]imidazo[1,2-a]pyridin-6-yl]-1,3-dimethyl-pyridin-2-one]	93.9	113	–
Cc1cc(-c2ccc3ncc(Cc4ccc(Cl)cc4)n3c2)cn(C)c1=O [Compound 3, 5-[3-[(4-chlorophenyl)methyl]imidazo[1,2-a]pyridin-6-yl]-1,3-dimethyl-pyridin-2-one]	86.3	143	–
COc1ccc(Cc2cnc3ccc(-c4cc(C)c(=O)n(C)c4)cn23)cc1 [Compound 4, 5-[3-[(4-methoxyphenyl)methyl]imidazo[1,2-a]pyridin-6-yl]-1,3-dimethyl-pyridin-2-one]	276	313	–
Cc1cc(-c2ccc3ncc(COC4CCCC4)n3c2)cn(C)c1=O [Compound 9, 5-[3-(cyclopentoxymethyl)imidazo[1,2-a]pyridin-6-yl]-1,3-dimethyl-pyridin-2-one]	152	153	–
Cc1cc(-c2ccc3ncc(CNc4ccccc4)n3c2)cn(C)c1=O [Compound 10, 5-[3-(anilinomethyl)imidazo[1,2-a]pyridin-6-yl]-1,3-dimethyl-pyridin-2-one]	837	318	–
Cc1nc2ccc(-c3cc(C)c(=O)n(C)c3)cn2c1Cc1ccccc1 [Compound 24, 5-(3-benzyl-2-methyl-imidazo[1,2-a]pyridin-6-yl)-1,3-dimethyl-pyridin-2-one]	32.2	–	–
Cc1cc(-c2ccc3ncc(S(=O)(=O)N(C)C4CCOC4)n3c2)cn(C)c1=O (single isomer, unassigned) [Compound 48, 6-(1,5-dimethyl-6-oxo-1,6-dihydropyridin-3-yl)-N-methyl-N-(tetrahydrofuran-3-yl)imidazo[1,2-a]pyridine-3-sulfonamide]	–	–	537
Cc1cc(-c2ccc3ncc(Nc4ccccc4)n3c2)cn(C)c1=O [Compound 30, 5-(3-anilinoimidazo[1,2-a]pyridin-6-yl)-1,3-dimethyl-pyridin-2-one]	24.9	–	–

Now from value to compound:

IC50 ([1]; Homo sapiens, MV4-11, 4 h) [nM]	IC50 (BRD4(BD1)) [nM]	IC50 [1] [nM]	Compound
844	195	–	Cc1cc(-c2ccc3ncc(CN4CCCCC4)n3c2)cn(C)c1=O [Compound 8, 1,3-dimethyl-5-[3-(1-piperidylmethyl)imidazo[1,2-a]pyridin-6-yl]pyridin-2-one]
234	–	–	Cc1cc(-c2ccc3ncc(COCC(F)(F)F)n3c2)cn(C)c1=O [Compound 34, 1,3-dimethyl-5-[3-(2,2,2-trifluoroethoxymethyl)imidazo[1,2-a]pyridin-6-yl]pyridin-2-one]
507	–	–	Cc1cc(-c2ccc3ncc(S(=O)(=O)N4CCC[C@H]4C)n3c2)cn(C)c1=O [Compound 45, (R)-1,3-dimethyl-5-(3-((2-methylpyrrolidin-1-yl)sulfonyl)imidazo[1,2-a]pyridin-6-yl)pyridin-2(1H)-one]
58	122	–	Cc1cc(-c2ccc3ncc(Cc4ccccc4)n3c2)cn(C)c1=O [Compound 1, 5-(3-benzylimidazo[1,2-a]pyridin-6-yl)-1,3-dimethyl-pyridin-2-one]
2660	–	–	Cc1cc(-c2ccc3ncc(C(=O)N4CCCCC4)n3c2)cn(C)c1=O [Compound 13, 1,3-dimethyl-5-(3-(piperidine-1-carbonyl)imidazo[1,2-a]pyridin-6-yl)pyridin-2(1H)-one]
112	–	–	Cc1cc(-c2ccc3ncc(CN4CCC(F)(F)CC4)n3c2)cn(C)c1=O [Compound 20, 5-[3-[(4,4-difluoro-1-piperidyl)methyl]imidazo[1,2-a]pyridin-6-yl]-1,3-dimethyl-pyridin-2-one]
